Laboratory results taken from ChEMBL document CHEMBL1212895.

Tests used:
[1] = molecular target: T1, Estrogen receptor (Homo sapiens) (UniProt P03372); details: MCF7, 25 uM
T1 sequence (whole entry): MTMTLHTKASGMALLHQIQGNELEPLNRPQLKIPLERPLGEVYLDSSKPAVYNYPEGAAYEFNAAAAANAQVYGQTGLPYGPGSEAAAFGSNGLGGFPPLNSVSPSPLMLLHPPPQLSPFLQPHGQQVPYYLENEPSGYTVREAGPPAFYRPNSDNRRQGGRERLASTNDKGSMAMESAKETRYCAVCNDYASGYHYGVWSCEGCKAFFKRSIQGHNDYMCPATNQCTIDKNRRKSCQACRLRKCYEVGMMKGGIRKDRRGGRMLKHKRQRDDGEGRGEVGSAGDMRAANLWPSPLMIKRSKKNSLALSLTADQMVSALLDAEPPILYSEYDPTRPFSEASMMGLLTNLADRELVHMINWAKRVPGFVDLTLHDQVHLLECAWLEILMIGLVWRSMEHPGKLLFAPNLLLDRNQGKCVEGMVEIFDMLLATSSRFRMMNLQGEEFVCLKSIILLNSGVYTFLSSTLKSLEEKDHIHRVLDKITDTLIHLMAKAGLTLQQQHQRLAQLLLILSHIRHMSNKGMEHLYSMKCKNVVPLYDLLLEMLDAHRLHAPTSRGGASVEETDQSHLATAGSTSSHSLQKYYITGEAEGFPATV

[2] = molecular target: T1, Estrogen receptor (Homo sapiens); details: MCF7, 10 uM

| inhibition [1] [%] | inhibition [2] [%] | Compound |
| --- | --- | --- |
| 49.8 | – | CCCCOc1ccc2c(=O)c(-c3ccc(O)cc3)coc2c1 |
| 100 | 54.6 | CC1(C)C=Cc2c(ccc3c(=O)c(-c4ccc(O)cc4)coc23)O1 |
| 68.1 | 33.4 | CC(C)Oc1ccc2c(=O)c(-c3ccc(O)cc3)coc2c1 |
| 33.2 | – | COc1ccc2c(=O)c(-c3ccc(O)cc3)coc2c1 |
| 18.8 | – | CCOc1ccc2c(=O)c(-c3ccc(O)cc3)coc2c1 |
| 91.3 | 60.5 | CC(C)COc1ccc2c(=O)c(-c3ccc(O)cc3)coc2c1 |
| – | 17.2 | O=c1c(-c2ccc(O)cc2)coc2cc(O)ccc12 |
| 89.8 | 54.1 | O=c1c(-c2ccc(O)cc2)coc2cc(OC3CCCC3)ccc12 |
| 41.4 | – | CCCOc1ccc2c(=O)c(-c3ccc(O)cc3)coc2c1 |
| 46.4 | – | CCCCCCOc1ccc2c(=O)c(-c3ccc(O)cc3)coc2c1 |
